# Laboratory results reported in patent US12059418B2, “Plasmodial surface anion channel inhibitors for the treatment or prevention of malaria” (The United States of America, as represented by the …, priority 2011, dated 2024).
# Experiments:
# [1] = system: PSAC on Dd2-infected cells; type: cell-based, P. falciparum; conditions: Dd2 vs. HB3
# [2] = system: channels from HB3 parasites; assay: Sorbitol uptake osmotic lysis, HB3-infected cells; type: cell-based, P. falciparum; conditions: read-out: K0.5
# Description: Inhibitor affinity for PSAC block was determined using a quantitative transmittance assay based on osmotic lysis of infected cells in sorbitol (Wagner et al., Biophys. J., 84: 116-123 (2003)). […] Other inhibitors had dose responses that are adequately fitted by a single Langmuir isotherm.
# PSAC [3] = assay: Uptake of alanine, proline and PhTMA by osmotic lysis; type: cell-based, P. falciparum
# From the text: ISPA-28 effects on uptake of the amino acids alanine and proline as well as the organic cation phenyl-trimethylammonium (PhTMA), solutes with known increases in permeability after infection (Ginsburg et al., Mol. Biochem. Parasitol. 14: 313-22 (1985); Bokhari et al., J. Membr. Biol. 226: 27-34 (2008)), were also examined.
# PSAC [4] = assay: Transport inhibition in 22 different laboratory parasite lines; type: cell-based, P. falciparum
# [5] = system: PSAC activity on HB3^3rec; type: cell-based, P. falciparum; conditions: HB3^3rec before selection
# Dd2 parasites = assay: In vitro parasite growth inhibition, Dd2; type: cell-based, P. falciparum
# HB3 parasites = assay: In vitro parasite growth inhibition, HB3; type: cell-based, P. falciparum; conditions: Plasmodium falciparum
# HB3^3rec = assay: In vitro parasite growth inhibition, HB3^3rec in PLM; type: cell-based, P. falciparum; conditions: after transport-based selection
# [6] = Inhibitor metabolism in parasite culture; type: in vitro ADME, P. falciparum; conditions: 40 μM, 37° C., 72 h in Dd2 culture
# Description: To examine possible inhibitor metabolism in parasite culture, Dd2 parasites were cultivated in standard media with 40 μM ISPA-28 at 37° C. for 72 h. After centrifugation, the culture supernatant was used as a source of ISPA-28 for comparison to freshly-prepared compound in transport inhibition studies.
# [7] = biological target: PSAC of Dd2 transfectant expressing HB3 allele for PFC0120w (clag 3.1) (Plasmodium falciparum, UniProt O77310); conditions: read-out: transfectant K0.5; PFC0120w (clag 3.1) HB3 allele in Dd2
# PSAC of Dd2 transfectant expressing HB3 allele for PFC0120w (clag 3.1), sequence (O77310 whole entry, looked up): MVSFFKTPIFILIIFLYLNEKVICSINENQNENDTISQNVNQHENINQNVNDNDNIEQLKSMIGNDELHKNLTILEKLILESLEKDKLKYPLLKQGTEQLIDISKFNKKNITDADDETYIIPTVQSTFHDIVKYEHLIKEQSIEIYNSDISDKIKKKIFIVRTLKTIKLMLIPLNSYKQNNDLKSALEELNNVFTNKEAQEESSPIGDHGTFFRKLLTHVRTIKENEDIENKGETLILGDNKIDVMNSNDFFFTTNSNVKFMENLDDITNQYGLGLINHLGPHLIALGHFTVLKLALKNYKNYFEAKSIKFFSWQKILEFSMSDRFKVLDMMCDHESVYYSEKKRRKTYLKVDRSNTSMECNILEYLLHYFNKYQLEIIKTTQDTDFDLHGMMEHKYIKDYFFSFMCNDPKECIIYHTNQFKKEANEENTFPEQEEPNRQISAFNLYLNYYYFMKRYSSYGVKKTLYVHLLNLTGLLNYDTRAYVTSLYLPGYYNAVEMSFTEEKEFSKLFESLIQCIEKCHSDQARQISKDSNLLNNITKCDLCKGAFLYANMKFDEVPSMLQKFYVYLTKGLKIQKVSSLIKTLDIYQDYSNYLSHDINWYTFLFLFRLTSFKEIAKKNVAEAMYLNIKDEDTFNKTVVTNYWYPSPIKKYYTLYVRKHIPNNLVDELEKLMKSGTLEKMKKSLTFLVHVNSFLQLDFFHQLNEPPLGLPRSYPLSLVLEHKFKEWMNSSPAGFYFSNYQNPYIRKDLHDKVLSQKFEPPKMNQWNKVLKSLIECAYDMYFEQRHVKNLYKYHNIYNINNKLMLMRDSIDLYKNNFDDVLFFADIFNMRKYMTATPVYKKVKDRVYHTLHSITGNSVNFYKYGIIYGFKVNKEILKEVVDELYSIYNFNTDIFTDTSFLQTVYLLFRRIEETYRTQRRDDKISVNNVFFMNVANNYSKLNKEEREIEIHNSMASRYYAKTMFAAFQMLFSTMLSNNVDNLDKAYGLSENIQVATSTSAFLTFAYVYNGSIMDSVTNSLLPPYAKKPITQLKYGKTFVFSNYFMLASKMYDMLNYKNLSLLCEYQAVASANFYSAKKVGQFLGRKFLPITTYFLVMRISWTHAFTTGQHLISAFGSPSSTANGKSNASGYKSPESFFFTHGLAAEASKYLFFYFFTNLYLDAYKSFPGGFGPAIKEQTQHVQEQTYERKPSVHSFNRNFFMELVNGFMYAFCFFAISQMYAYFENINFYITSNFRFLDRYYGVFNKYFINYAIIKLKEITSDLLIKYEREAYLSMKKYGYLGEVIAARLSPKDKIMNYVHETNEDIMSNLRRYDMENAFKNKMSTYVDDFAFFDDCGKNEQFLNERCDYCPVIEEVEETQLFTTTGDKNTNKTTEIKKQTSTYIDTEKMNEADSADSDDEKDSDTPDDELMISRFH
# Dd2 channels = assay: Cell-attached patch-clamp of Dd2-infected erythrocytes; conditions: 10 μM, 1.1 M Cl−
# HB3 channels = assay: Cell-attached patch-clamp of HB3-infected erythrocytes; conditions: 10 μM, 1.1 M Cl−
# [8] = biological target: T1, PSAC of Dd2 transfectant expressing HB3 allele for PFC0110w (clag 3.2) (Plasmodium falciparum, UniProt O77309); assay: Sorbitol uptake inhibition, Dd2 transfectant expressing HB3 allele of PFC0110w; conditions: read-out: transfectant K0.5; PFC0110w (clag 3.2) HB3 allele in Dd2
# T1 sequence (O77309 25-1416): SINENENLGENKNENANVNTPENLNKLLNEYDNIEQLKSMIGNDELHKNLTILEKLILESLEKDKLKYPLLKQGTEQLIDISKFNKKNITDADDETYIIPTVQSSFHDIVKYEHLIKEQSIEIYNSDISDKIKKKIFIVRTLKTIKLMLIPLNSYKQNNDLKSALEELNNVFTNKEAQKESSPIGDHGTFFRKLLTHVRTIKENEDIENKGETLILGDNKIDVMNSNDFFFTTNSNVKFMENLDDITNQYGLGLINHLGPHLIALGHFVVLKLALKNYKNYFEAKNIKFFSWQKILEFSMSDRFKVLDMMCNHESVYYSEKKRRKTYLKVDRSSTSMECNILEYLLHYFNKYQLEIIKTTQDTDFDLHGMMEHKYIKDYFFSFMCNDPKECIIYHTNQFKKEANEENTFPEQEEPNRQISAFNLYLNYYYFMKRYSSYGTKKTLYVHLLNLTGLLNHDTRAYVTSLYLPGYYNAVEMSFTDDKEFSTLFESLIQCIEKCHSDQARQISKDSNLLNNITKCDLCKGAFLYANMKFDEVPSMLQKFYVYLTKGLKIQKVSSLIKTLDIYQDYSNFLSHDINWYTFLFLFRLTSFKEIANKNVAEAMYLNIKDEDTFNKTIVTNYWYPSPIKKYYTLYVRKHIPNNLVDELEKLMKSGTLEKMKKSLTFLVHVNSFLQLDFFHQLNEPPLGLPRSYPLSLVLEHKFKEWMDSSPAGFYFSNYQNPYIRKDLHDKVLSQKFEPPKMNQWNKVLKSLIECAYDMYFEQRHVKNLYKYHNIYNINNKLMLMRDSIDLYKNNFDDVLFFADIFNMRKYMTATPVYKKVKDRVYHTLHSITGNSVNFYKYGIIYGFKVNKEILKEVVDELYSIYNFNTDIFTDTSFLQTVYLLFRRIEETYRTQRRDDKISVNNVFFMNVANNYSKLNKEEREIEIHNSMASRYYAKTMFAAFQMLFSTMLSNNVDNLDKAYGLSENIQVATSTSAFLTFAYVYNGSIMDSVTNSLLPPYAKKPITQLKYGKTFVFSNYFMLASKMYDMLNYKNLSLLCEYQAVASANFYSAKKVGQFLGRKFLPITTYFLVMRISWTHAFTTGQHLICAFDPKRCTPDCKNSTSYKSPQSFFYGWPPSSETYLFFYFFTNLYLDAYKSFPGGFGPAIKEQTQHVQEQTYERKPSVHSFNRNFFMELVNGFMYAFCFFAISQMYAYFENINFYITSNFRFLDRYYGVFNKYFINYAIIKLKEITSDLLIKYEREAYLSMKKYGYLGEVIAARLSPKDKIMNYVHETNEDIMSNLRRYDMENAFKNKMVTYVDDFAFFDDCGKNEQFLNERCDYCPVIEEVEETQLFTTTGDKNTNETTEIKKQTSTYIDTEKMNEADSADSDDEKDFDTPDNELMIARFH
# [9] = biological target: channels associated with clag3.1 gene from Dd2 (Plasmodium falciparum, UniProt O77310); assay: PSAC inhibition, 7C20 channels associated with clag3.1; type: cell-based, P. falciparum; conditions: clag3.1 from Dd2; read-out: K0.5
# channels associated with clag3.1 gene from Dd2, sequence (O77310 whole entry, looked up): as the sequence (O77310 whole entry, looked up) above
# Description: (§1) A PSAC inhibitor with reversed specificity for the two Dd2 clag3 products was next sought. To this end, hits from the high-throughput screen of Example 2 were surveyed using the progeny clone 7C20 before and after selection for clag3.1 expression. This secondary screen identified ISPA-43 as a PSAC inhibitor with an allele specificity opposite that of ISPA-28 (Formula B below (K0.5 of 32 and 3.9 μM for channels associated with clag3.1 and clag3.2 genes from Dd2, respectively).
# [10] = biological target: T2, channels associated with clag3.2 gene from Dd2 (Plasmodium falciparum, UniProt A0A1W6IZK1); assay: PSAC inhibition, 7C20 channels associated with clag3.2; type: cell-based, P. falciparum; conditions: read-out: K0.5; clag3.2 from Dd2
# T2 construct: rows headed: K0.5; other: clag3.2 from Dd2
# T2 sequence (A0A1W6IZK1 whole entry, looked up): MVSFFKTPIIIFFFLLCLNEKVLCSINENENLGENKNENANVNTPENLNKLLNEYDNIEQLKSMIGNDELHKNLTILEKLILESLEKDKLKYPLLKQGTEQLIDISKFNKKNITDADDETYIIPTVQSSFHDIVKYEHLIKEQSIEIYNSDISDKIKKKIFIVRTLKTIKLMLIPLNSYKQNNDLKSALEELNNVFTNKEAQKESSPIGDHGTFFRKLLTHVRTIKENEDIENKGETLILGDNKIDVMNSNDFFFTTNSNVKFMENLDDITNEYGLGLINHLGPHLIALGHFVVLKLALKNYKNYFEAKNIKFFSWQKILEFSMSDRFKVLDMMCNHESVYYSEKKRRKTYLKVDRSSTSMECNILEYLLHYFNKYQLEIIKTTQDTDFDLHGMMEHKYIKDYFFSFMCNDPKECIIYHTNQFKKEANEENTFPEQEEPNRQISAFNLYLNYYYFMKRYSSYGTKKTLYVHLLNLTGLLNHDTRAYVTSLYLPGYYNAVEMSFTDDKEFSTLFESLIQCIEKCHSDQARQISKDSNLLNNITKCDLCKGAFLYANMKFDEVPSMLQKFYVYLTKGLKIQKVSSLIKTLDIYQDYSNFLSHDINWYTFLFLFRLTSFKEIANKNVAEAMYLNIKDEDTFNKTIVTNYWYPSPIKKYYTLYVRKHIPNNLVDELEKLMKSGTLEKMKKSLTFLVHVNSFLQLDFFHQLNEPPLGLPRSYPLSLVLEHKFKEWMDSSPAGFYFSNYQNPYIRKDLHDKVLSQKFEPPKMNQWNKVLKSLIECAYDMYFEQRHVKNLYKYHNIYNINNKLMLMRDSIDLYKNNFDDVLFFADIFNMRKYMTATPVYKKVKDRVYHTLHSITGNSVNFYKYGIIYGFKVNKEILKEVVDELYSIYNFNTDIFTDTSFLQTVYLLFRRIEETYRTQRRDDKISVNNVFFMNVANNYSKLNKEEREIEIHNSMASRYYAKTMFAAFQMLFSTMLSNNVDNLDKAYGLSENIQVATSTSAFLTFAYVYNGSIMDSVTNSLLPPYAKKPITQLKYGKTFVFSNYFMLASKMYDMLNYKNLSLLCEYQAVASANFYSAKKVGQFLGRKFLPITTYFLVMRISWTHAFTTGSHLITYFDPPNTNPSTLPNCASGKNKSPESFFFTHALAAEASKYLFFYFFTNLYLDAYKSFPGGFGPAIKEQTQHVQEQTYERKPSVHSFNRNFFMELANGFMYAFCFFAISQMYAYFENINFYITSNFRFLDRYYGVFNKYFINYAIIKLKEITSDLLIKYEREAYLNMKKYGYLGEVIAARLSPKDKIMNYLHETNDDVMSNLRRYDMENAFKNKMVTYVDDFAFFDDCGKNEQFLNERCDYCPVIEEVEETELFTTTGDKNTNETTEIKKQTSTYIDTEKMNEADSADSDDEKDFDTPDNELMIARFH
# Description: as §1
# [11] = system: channels associated with clag3.2 gene from Dd2; assay: as above; type: cell-based, P. falciparum
# Description: as §1
Structure (SMILES),difference in half-maximal affinities [1] [fold],IC50 [2] [µM],"effects on uptake of alanine, proline and phenyl-trimethylammonium (PhTMA) (PSAC [3])",transport inhibition in 22 laboratory parasite lines (PSAC [4]),channel's ISPA-28 affinity [5],"IC50 (Dd2 parasites; Plasmodium falciparum, DD2, PLM) [µM]","IC50 (Dd2 parasites; Plasmodium falciparum, DD2, RPMI-based media) [µM]",IC50 (Dd2 parasites; RPMI-based media) [µM],"IC50 (HB3 parasites; HB3, PLM) [µM]","IC50 (HB3 parasites; HB3, RPMI-based media) [µM]",growth inhibition sensitivity (HB3^3rec),efficacy after metabolism under in vitro culture conditions [6],IC50 [7] [µM],single PSAC channel inhibition (Dd2 channels),single PSAC channel inhibition (HB3 channels),IC50 [8] [µM],IC50 [9] [µM],IC50 [10] [µM],higher affinity for channels formed by Dd2 clag3.2 than clag3.1 [11] [fold]
CCn1cc(C2=NOC(C(=O)Nc3c(C)n(C)n(-c4ccccc4)c3=O)C2)c(C)n1 (stereo not shown) [ISPA-28],~800,43 ± 2,inhibited with dose responses matching those for sorbitol,significant transport inhibition was found with only Dd2 and W2,intermediate between those of HB3 and Dd2,0.66 ± 0.2,> 40,~50,52 ± 19,> 40,sensitive to ISPA-28 at levels matching Dd2,not compromised by metabolism,0.14 ± 0.012,near-fully inhibited,largely unaffected,0.095 ± 0.008,–,–,–
CCC(CC)C(=O)Nc1ncc2c(n1)CC(c1ccc(OC)c(OC)c1)CC2=O (stereo not shown) [ISPA-43],–,–,–,–,–,–,–,–,–,–,–,–,–,–,–,–,32,3.9,10
